According to US20100261639A1, “TRIAZOLE-BASED AMINOGLYCOSIDE-PEPTIDE CONJUGATES AND METHODS OF USE” (UNIVERSITY OF MANITOBA, priority 2007, published 2010):
Converted amounts (≈) assume the structure as drawn.

Test system: S. aureus ATCC 29213
Experiment: MIC, macrobroth dilution, S. aureus ATCC 29213
Format: cell-based, Staphylococcus aureus
Details: visible growth after 24 h at 37° C.
Description: The microbiological activities of the neomycin-peptide conjugates and kanamycin-peptide conjugates against both American Type Culture Collection (ATCC) reference and clinical strains of Staphylococcus aureus, MRSA, Staphylococcus epidermidis, MRSE, Enterococcus faecalis, Enterococcus faecium, Streptococcus pneumoniae, E. coli, Pseudomonas aeruginosa, Stenotrophomonas maltophilia, Acinetobacter baumannii, and Klebsiella pneumoniae were assessed. Special focus was given to assess activity against multi-drug resistant strains of these pathogens. Antibiotic susceptibility testing was performed using the macrobroth dilution method as per Clinical Laboratory Standards Institute-CLSI (formerly National Committee for Clinical and Laboratory Standards-NCCLS) (Clinical and Laboratory Standards Institute, 2006). MIC values defined as the lowest concentration of antimicrobial agent which inhibited the development of visible growth after 24 h at 37° C.

minimal inhibitory concentration (MIC): 2 µg/mL (≈ 3.25 µM)
SMILES: NC[C@@H]1O[C@H](O[C@H]2[C@@H](O)[C@H](O[C@@H]3[C@@H](O)[C@H](N)C[C@H](N)[C@H]3O[C@H]3O[C@H](CN)[C@@H](O)[C@H](O)[C@H]3N)O[C@@H]2CO)[C@H](N)[C@@H](O)[C@@H]1O [Neomycin B, neomycin B]
